Experiments:
Assay type in all cases: in vivo
Heliothis virescens = assay: Action on Tobacco Budworm (Heliothis virescens); conditions: 800 ppm, egg and larval mortality, 5 days
In short: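 Compounds in 25% DMSO/75% water were sprayed at several concentrations onto insect diet in microtiter wells holding 15-25 eggs, two replications. After 5 days at about 28±1 °C and 80±5% RH, egg and larval mortality was scored visually.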

Anthonomus grandis = assay: Action on Boll Weevil (Anthonomus grandis); conditions: 800 ppm, egg and larval mortality, 5 days
In short: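 Compounds in 75:25 water:DMSO sprayed at several concentrations onto insect diet in microtiter wells holding 5-10 eggs, two replicates. Plates kept 5 days at about 25±1 °C and 75±5% RH; egg and larval mortality scored visually.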

Plutella xylostella [1] = assay: Action on Diamond Back Moth (Plutella xylostella), microtiter plates, insect diet, eggs; conditions: 800 ppm; egg and larval mortality; 5 days
Description: Example B8: Action on Diamond Back Moth (Plutella xylostella)
For evaluating control of diamond back moth (Plutella xylostella) the test unit consisted of 96-well-microtiter plates containing an insect diet and 15-25 P. xylostella eggs. The compounds or mixtures were formulated using a solution containing 75% water and 25% DMSO. Different concentrations of formulated compounds or mixtures were sprayed onto the insect diet at 5 μl, using a custom-built micro atomizer, at two replications. For experimental mixtures in these tests identical volumes of both mixing partners at the desired concentrations respectively, were mixed together. After application, microtiter plates were incubated at 28±1 °C, 80±5% RH for 5 days. Egg and larval mortality was then visually assessed.

Aedes aegypti = assay: whole plant or invertebrate; conditions: for mortality in comparison with untreated controls: 800 ppm, larvae, 2 days
In short: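 Freshly hatched larvae (5-15 per well) were held in tap water, and compounds formulated in 25% DMSO/water were sprayed onto diet at several concentrations in duplicate. Larval mortality was scored visually after 2 days at 28±1 °C, 80±5% RH.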

Spodoptera eridania = assay: Action on Southern Armyworm (Spodoptera eridania), 2nd Instar Larvae; conditions: 300 ppm, 2nd instar larvae, 4 days after treatment
In short: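 Compounds in 50% acetone/water with 0.01% nonionic surfactant sprayed electrostatically onto Lima bean plants at 1st true leaf stage. After drying, 10–11 2nd-instar larvae bagged with each pot, kept about 25 °C, 20–40% RH. Mortality and reduced feeding scored at 4 days vs untreated plants.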

Plutella xylostella [2] = assay: Action on Diamond Back Moth (Plutella xylostella), cabbage leaf dip, 3rd instar larvae; conditions: 300 ppm, 3rd instar larvae, 72 hours after treatment
In short: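 Cabbage leaves dipped in compound solution (1:1 water:acetone, 0.01% v/v surfactant), air-dried, then infested with ten 3rd-instar larvae in petri dishes on moist filter paper. Mortality scored at 72 h after treatment; feeding damage rated on a 0–100% scale.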

SMILES	mortality in comparison with untreated controls (Heliothis virescens)	mortality in comparison with untreated controls (Anthonomus grandis)	mortality in comparison with untreated controls (Plutella xylostella [1])	mortality in comparison with untreated controls (Aedes aegypti)	mortality in comparison with untreated controls (Spodoptera eridania)	further results
Cc1ccc(C(C)C)c(N2C(=O)CSC2=NC(=O)Nc2ccc(-n3cc(NC(=O)c4ccc(C5COC5)cc4)c(C)n3)cc2)c1 [Example C-52]	at least 75%	at least 75%	at least 75%			
Cc1ccc(C(C)C)c(N2C(=O)CS/C2=N\C(=O)Nc2cc(C)c(-n3nc(C)c(NC(=O)c4ccc(OC(F)(F)F)cc4)c3C)cc2Cl)c1 [Example C-99]	at least 75%	at least 75%	at least 75%	at least 50%	at least 75%	
Cc1ccc(C(C)C)c(N2C(=O)CSC2=NC(=O)Nc2ccc(-n3cc(NC(=O)c4cncnc4)c(C)n3)cc2)c1 [Example C-68]	at least 75%	at least 75%	at least 75%		at least 75%	
Cc1ccc(C(C)C)c(N2C(=O)CSC2=NC(=O)Nc2ccc(-n3cc(NC(=O)c4ccc(S(C)(=O)=O)cn4)c(C)n3)cc2)c1 [Example C-38]	at least 75%	at least 75%	at least 75%		at least 75%	
Cc1ccc(C(C)C)c(N2C(=O)CSC2=NC(=O)Nc2ccc(-n3nc(C)c(NC(=O)c4cc(F)c(F)c(F)c4)c3C)cc2)c1 [Example C-117]	at least 75%	at least 75%	at least 75%	at least 50%	at least 75%	
Cc1ccc(C(C)C)c(N2C(=O)CSC2=NC(=O)Nc2ccc(-n3cc(NC(=O)c4ccc(S(C)(=O)=O)cc4)c(C)n3)cc2)c1 [Example C-53]			at least 75%			
Cc1ccc(C(C)C)c(N2C(=O)CSC2=NC(=O)Nc2ccc(-n3cc(NC(=O)c4ccc(S(C)(=O)=O)c(F)c4)c(C)n3)cc2)c1 [Example C-57]	at least 75%		at least 75%			
Cc1ccc(C(C)C)c(N2C(=O)CS/C2=N\C(=O)Nc2ccc(-n3cc(NC(=O)c4ccc(Cl)cc4Cl)c(C)n3)cc2)c1 [Example C-27]	at least 75%	at least 75%	at least 75%		at least 75%	
CNC(=O)c1ccc(C(=O)Nc2cn(-c3ccc(NC(=O)N=C4SCC(=O)N4c4cc(C)ccc4C(C)C)cc3)nc2C)cn1 [Example C-60]			at least 75%			
Cc1ccc(C(C)C)c(N2C(=O)CSC2=NC(=O)Nc2ccc(-n3cc(NC(=O)c4ccc(Cl)nc4)c(C)n3)cc2)c1 [Example C-66]	at least 75%	at least 75%	at least 75%	at least 50%		
Cc1ccc(C(C)C)c(N2C(=O)CSC2=NC(=O)Nc2ccc(-n3nc(C)c(NC(=O)c4ccc(F)c(Cl)c4)c3C)cc2)c1 [Example C-113]	at least 75%	at least 75%	at least 75%	at least 50%		
Cc1ccc(C(C)C)c(N2C(=O)CSC2=NC(=O)Nc2ccc(-n3cc(NC(=O)c4ccc(OC(C)C)cc4)c(C)n3)cc2)c1 [Example C-48]	at least 75%		at least 75%		at least 75%	
Cc1ccc(C(C)C)c(N2C(=O)CSC2=NC(=O)Nc2ccc(-n3cc(NC(=O)c4ccc(N=S(C)(C)=O)cc4)c(C)n3)cc2)c1 [Example C-55]		at least 75%	at least 75%			
Cc1ccc(C(C)C)c(NC(=S)NC(=O)Nc2ccc(-n3cc(NC(=O)c4ccc(OC(F)(F)F)cc4)c(C)n3)cc2)c1 [Example C-127]	at least 75%	at least 75%	at least 75%		at least 75%	
Cc1ccc(C(C)C)c(N2C(=O)CSC2=NC(=O)Nc2ccc(-n3nc(C)c(NC(=O)c4ccc(Br)c(C#N)c4)c3C)cc2)c1 [Example C-121]		at least 75%	at least 75%	at least 50%	at least 75%	
Cc1ccc(C(C)C)c(N2C(=O)CSC2=NC(=O)Nc2ccc(-n3cc(NC(=O)c4ccc(C(C)(C)C#N)cc4)c(C)n3)cc2)c1 [Example C-56]	at least 75%		at least 75%		at least 75%	
Cc1ccc(C(C)C)c(N2C(=O)CSC2=NC(=O)Nc2ccc(-n3nc(C)c(NC(=O)c4ccc(C(Cl)Cl)cc4)c3C)cc2)c1 [Example C-122]		at least 75%	at least 75%			
Cc1ccc(C(C)C)c(N2C(=O)CSC2=NC(=O)Nc2ccc(-n3cc(NC(=O)c4ccc(C(C)(C)C)cc4)c(C)n3)cc2)c1 [Example C-73]			at least 75%			
Cc1ccc(C(C)C)c(N2C(=O)CSC2=NC(=O)Nc2ccc(-n3cc(NC(=O)c4csc(Cl)c4)c(C)n3)cc2)c1 [Example C-39]	at least 75%	at least 75%		at least 50%	at least 75%	mortality in comparison with untreated controls (Plutella xylostella [2]): at least 75%
Cc1ccc(C(C)C)c(N2C(=O)CSC2=NC(=O)Nc2ccc(-n3cc(NC(=O)c4ccc(C5CCC5)cc4)c(C)n3)cc2)c1 [Example C-58]	at least 75%	at least 75%	at least 75%			
Cc1ccc(C(C)C)c(N2C(=O)CS/C2=N\C(=O)Nc2ccc(-n3nc(C)c(NC(=O)c4ccc(OC(F)(F)F)cc4)c3C3CC3)cc2)c1 [Example C-5, N-[5-cyclopropyl-1-[4-[[(Z)-[3-(2-isopropyl-5-methyl-phenyl)-4-oxo-thiazolidin-2-ylidene]carbamoyl]amino]phenyl]-3-methyl-pyrazol-4-yl]-4-(trifluoromethoxy)benzamide]						mortality at 800 ppm (Heliothis virescens; Heliothis virescens, 120 h, read-out: mortality in comparison with untreated controls): ≥ 75%; mortality at 800 ppm (Aedes aegypti; Aedes aegypti, 48 h, read-out: mortality in comparison with untreated controls): ≥ 50%; mortality at 300 ppm (Plutella xylostella [2]; Plutella xylostella, foliar, read-out: mortality in comparison with untreated controls): ≥ 75%; mortality at 800 ppm (Anthonomus grandis; Anthonomus grandis, 120 h, read-out: mortality in comparison with untreated controls): ≥ 75%; mortality at 300 ppm (Spodoptera eridania; Spodoptera eridania, 96 h, read-out: mortality in comparison with untreated controls): ≥ 75%
Cc1ccc(C(C)C)c(N2C(=O)CSC2=NC(=O)Nc2ccc(-n3cc(NC(=O)c4ccc(C(F)F)cc4)c(C)n3)cc2)c1 [Example C-82]	at least 75%	at least 75%		at least 50%	at least 75%	mortality in comparison with untreated controls (Plutella xylostella [2]): at least 75%

— patent US20260354380A1, “PYRAZOLO PESTICIDAL COMPOUNDS” (BASF SE, priority 2022, published 2026)
